Assay results published in PubChem BioAssay (NCI).
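These data come from cells grown in 96-well plates and exposed to compound for 48 hours at five concentrations. GI50 marks 50% less growth. TGI: concentration producing complete growth inhibition.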

Legend:
Assay in all cases: growth of human tumour cells (NCI), 48 h
HL-60(TB) leukemia = tested on: HL-60(TB) leukemia
K-562 leukemia = tested on: K-562 leukemia
M14 melanoma = tested on: M14 melanoma
MOLT-4 leukemia = tested on: MOLT-4 leukemia
MDA-MB-435 = tested on: MDA-MB-435
HS 578T breast = tested on: HS 578T breast
PC-3 prostate = tested on: PC-3 prostate
SF-295 CNS = tested on: SF-295 CNS

COc1cc(/C=C/C(=O)C(C(=O)/C=C/c2ccc(OC(=O)CCNc3nnc(C)s3)c(OC)c2)C(=O)CCNc2nnc(C)s2)ccc1OC(=O)CCNc1nnc(C)s1
GI50 (HL-60(TB) leukemia): 1.77 µM
TGI (HL-60(TB) leukemia): 3.93 µM
GI50 (K-562 leukemia): 2.23 µM
TGI (K-562 leukemia): 8.01 µM
GI50 (M14 melanoma): 3.11 µM
TGI (M14 melanoma): 11 µM
GI50 (MOLT-4 leukemia): 1.64 µM
TGI (MOLT-4 leukemia): 3.89 µM
GI50 (MDA-MB-435): 2.06 µM
TGI (MDA-MB-435): 6.98 µM
GI50 (HS 578T breast): 2.77 µM
TGI (HS 578T breast): 9.7 µM
GI50 (PC-3 prostate): 2.85 µM
TGI (PC-3 prostate): 15.4 µM
GI50 (SF-295 CNS): 6.8 µM
TGI (SF-295 CNS): 20.2 µM

NC(N)=N/N=C(/c1ccccc1)c1ccc(Cl)cc1
GI50 (HL-60(TB) leukemia): 1.34 µM
TGI (HL-60(TB) leukemia): 62.2 µM
GI50 (K-562 leukemia): 2.95 µM
TGI (K-562 leukemia): > 100 µM
GI50 (M14 melanoma): 12 µM
TGI (M14 melanoma): 78.4 µM
GI50 (MOLT-4 leukemia): 5.45 µM
TGI (MOLT-4 leukemia): > 100 µM
GI50 (MDA-MB-435): 2.74 µM
TGI (MDA-MB-435): 9.27 µM
GI50 (HS 578T breast): 8.57 µM
TGI (HS 578T breast): 51.7 µM
GI50 (PC-3 prostate): 3.84 µM
TGI (PC-3 prostate): > 100 µM
GI50 (SF-295 CNS): 10.3 µM
TGI (SF-295 CNS): > 100 µM

O=C1CSC(=S)N1Cc1cccnc1
GI50 (HL-60(TB) leukemia): 7.27 µM
TGI (HL-60(TB) leukemia): 49 µM
GI50 (K-562 leukemia): 3.75 µM
TGI (K-562 leukemia): > 100 µM
GI50 (M14 melanoma): 15.3 µM
TGI (M14 melanoma): 39.4 µM
GI50 (MOLT-4 leukemia): 11.6 µM
TGI (MOLT-4 leukemia): > 100 µM
GI50 (MDA-MB-435): 3.53 µM
TGI (MDA-MB-435): 17.1 µM
GI50 (HS 578T breast): 17 µM
TGI (HS 578T breast): 66.1 µM
GI50 (PC-3 prostate): 16.2 µM
TGI (PC-3 prostate): > 100 µM
GI50 (SF-295 CNS): 37.7 µM
TGI (SF-295 CNS): > 100 µM

Cc1ccc(/C=C/C(=O)c2ccc(N)cc2)c(C)c1
GI50 (HL-60(TB) leukemia): 2.89 µM
TGI (HL-60(TB) leukemia): 11.4 µM
GI50 (K-562 leukemia): 2.03 µM
TGI (K-562 leukemia): 4.84 µM
GI50 (M14 melanoma): 2.45 µM
TGI (M14 melanoma): 7.52 µM
GI50 (MOLT-4 leukemia): 1.28 µM
TGI (MOLT-4 leukemia): 3.69 µM
GI50 (MDA-MB-435): 4.01 µM
TGI (MDA-MB-435): 15.5 µM
GI50 (HS 578T breast): 18.2 µM
TGI (HS 578T breast): 80 µM
GI50 (PC-3 prostate): 14.6 µM
TGI (PC-3 prostate): 28.2 µM
GI50 (SF-295 CNS): 19.8 µM
TGI (SF-295 CNS): 40.2 µM

CCCCCCCCCCCCSC(=NC)NC
GI50 (HL-60(TB) leukemia): 1.86 µM
TGI (HL-60(TB) leukemia): 4.41 µM
GI50 (K-562 leukemia): 1.95 µM
TGI (K-562 leukemia): 6.35 µM
GI50 (MOLT-4 leukemia): 2.01 µM
TGI (MOLT-4 leukemia): 5.05 µM
GI50 (MDA-MB-435): 1.74 µM
TGI (MDA-MB-435): 3.3 µM
GI50 (HS 578T breast): 2.41 µM
TGI (HS 578T breast): 7.07 µM
GI50 (PC-3 prostate): 1.9 µM
TGI (PC-3 prostate): 4.94 µM
GI50 (SF-295 CNS): 1.91 µM
TGI (SF-295 CNS): 3.86 µM

COc1cc2c3c(n(CCCNC(=O)OCC4c5ccccc5-c5ccccc54)c(=O)c2cc1OC)-c1cc2c(cc1C3=O)OCO2
GI50 (HL-60(TB) leukemia): > 81.2 µM
TGI (HL-60(TB) leukemia): > 100 µM
GI50 (K-562 leukemia): > 79.4 µM
TGI (K-562 leukemia): > 100 µM
GI50 (M14 melanoma): 36.8 µM
TGI (M14 melanoma): > 100 µM
GI50 (MOLT-4 leukemia): 8.07 µM
TGI (MOLT-4 leukemia): > 34.6 µM
GI50 (MDA-MB-435): > 100 µM
TGI (MDA-MB-435): > 100 µM
GI50 (HS 578T breast): 22.8 µM
TGI (HS 578T breast): > 100 µM
GI50 (PC-3 prostate): > 100 µM
TGI (PC-3 prostate): > 100 µM
GI50 (SF-295 CNS): 0.751 µM
TGI (SF-295 CNS): > 100 µM

Cn1c(=O)c2[nH]c(C3CC(=O)CC(c4nc5c([nH]4)c(=O)n(C)c(=O)n5C)N3)nc2n(C)c1=O (stereo not given)
TGI (HL-60(TB) leukemia): > 100 µM
TGI (K-562 leukemia): > 100 µM
TGI (M14 melanoma): > 100 µM
TGI (MOLT-4 leukemia): > 100 µM
TGI (MDA-MB-435): > 100 µM
TGI (HS 578T breast): > 100 µM
TGI (PC-3 prostate): > 100 µM
TGI (SF-295 CNS): > 100 µM

COc1ccc(Cn2cc3c(c2-c2ccc(O)cc2)CCc2cnoc2-3)cc1
GI50 (HL-60(TB) leukemia): 0.221 µM
TGI (HL-60(TB) leukemia): 0.745 µM
GI50 (K-562 leukemia): 0.13 µM
TGI (K-562 leukemia): 16.6 µM
GI50 (M14 melanoma): 0.325 µM
TGI (M14 melanoma): 16.5 µM
GI50 (MOLT-4 leukemia): 0.507 µM
TGI (MOLT-4 leukemia): 27.4 µM
GI50 (MDA-MB-435): 0.0737 µM
TGI (MDA-MB-435): 0.365 µM
GI50 (HS 578T breast): 0.252 µM
TGI (HS 578T breast): 6.62 µM
GI50 (PC-3 prostate): 0.653 µM
TGI (PC-3 prostate): 44.5 µM
GI50 (SF-295 CNS): 0.225 µM
TGI (SF-295 CNS): 2.49 µM

N#CCC12CC=CCC1=C(O)C(=O)c1ccc(O)cc12 (stereo not given)
TGI (HL-60(TB) leukemia): > 100 µM
TGI (K-562 leukemia): > 100 µM
TGI (M14 melanoma): > 100 µM
TGI (MOLT-4 leukemia): > 100 µM
TGI (MDA-MB-435): > 100 µM
TGI (HS 578T breast): > 100 µM
TGI (PC-3 prostate): > 100 µM
TGI (SF-295 CNS): > 100 µM

COc1ccc(/C(=N\O)c2cc(OC)c(OC)c(OC)c2)c(OC)c1N
GI50 (HL-60(TB) leukemia): 2.6 µM
TGI (HL-60(TB) leukemia): 6.55 µM
GI50 (K-562 leukemia): 1.5 µM
TGI (K-562 leukemia): > 100 µM
GI50 (M14 melanoma): 2.98 µM
TGI (M14 melanoma): > 100 µM
GI50 (MOLT-4 leukemia): 3.95 µM
TGI (MOLT-4 leukemia): > 100 µM
GI50 (MDA-MB-435): 0.653 µM
TGI (MDA-MB-435): 4.65 µM
GI50 (HS 578T breast): 5.51 µM
TGI (HS 578T breast): > 100 µM
GI50 (PC-3 prostate): 4 µM
TGI (PC-3 prostate): > 100 µM
GI50 (SF-295 CNS): 2.37 µM
TGI (SF-295 CNS): > 100 µM

CO/N=C(\COc1ccc2c(c1)oc(=O)c1cc(OC)ccc12)c1cccc(OC)c1
GI50 (K-562 leukemia): > 100 µM
TGI (K-562 leukemia): > 100 µM
GI50 (M14 melanoma): > 100 µM
TGI (M14 melanoma): > 100 µM
GI50 (MOLT-4 leukemia): > 100 µM
TGI (MOLT-4 leukemia): > 100 µM
GI50 (MDA-MB-435): > 100 µM
TGI (MDA-MB-435): > 100 µM
GI50 (HS 578T breast): > 100 µM
TGI (HS 578T breast): > 100 µM
GI50 (PC-3 prostate): > 100 µM
TGI (PC-3 prostate): > 100 µM
GI50 (SF-295 CNS): > 100 µM
TGI (SF-295 CNS): > 100 µM

O=C1/C(=C/c2ccc(Cl)cc2)CN(Cc2cn(CCNc3ccnc4cc(Cl)ccc34)nn2)C/C1=C\c1ccc(Cl)cc1
GI50 (HL-60(TB) leukemia): 0.332 µM
TGI (HL-60(TB) leukemia): 1.1 µM
GI50 (K-562 leukemia): 0.302 µM
TGI (K-562 leukemia): 1.08 µM
GI50 (M14 melanoma): 0.56 µM
TGI (M14 melanoma): 2.21 µM
GI50 (MOLT-4 leukemia): 0.499 µM
TGI (MOLT-4 leukemia): > 100 µM
GI50 (MDA-MB-435): 0.326 µM
TGI (MDA-MB-435): 1.08 µM
GI50 (HS 578T breast): 0.724 µM
TGI (HS 578T breast): 13.5 µM
GI50 (PC-3 prostate): 0.26 µM
TGI (PC-3 prostate): 0.776 µM
GI50 (SF-295 CNS): 0.222 µM
TGI (SF-295 CNS): 0.541 µM

CC1(C)N=C(N)N=C(N)N1c1ccc(OCC(=O)N2CCOCC2)c(Cl)c1
GI50 (HL-60(TB) leukemia): 0.981 µM
TGI (HL-60(TB) leukemia): > 100 µM
GI50 (K-562 leukemia): 0.854 µM
TGI (K-562 leukemia): > 100 µM
GI50 (M14 melanoma): 4.19 µM
TGI (M14 melanoma): > 100 µM
GI50 (MOLT-4 leukemia): 6.31 µM
TGI (MOLT-4 leukemia): > 100 µM
GI50 (MDA-MB-435): 0.565 µM
TGI (MDA-MB-435): > 100 µM
GI50 (PC-3 prostate): 0.531 µM
TGI (PC-3 prostate): > 100 µM
GI50 (SF-295 CNS): 0.561 µM
TGI (SF-295 CNS): > 100 µM

Cc1[nH]n(-c2ccc(S(=O)(=O)O)cc2)c(=O)c1N=Nc1ccccc1
TGI (K-562 leukemia): > 100 µM
TGI (M14 melanoma): > 100 µM
TGI (MOLT-4 leukemia): > 100 µM
TGI (MDA-MB-435): > 100 µM
TGI (HS 578T breast): > 100 µM
TGI (PC-3 prostate): > 100 µM
TGI (SF-295 CNS): > 100 µM

COc1cc(C(=O)N2CCN(c3ccccc3OC)CC2)c(N)cc1OCc1ccccc1
GI50 (HL-60(TB) leukemia): 25.5 µM
TGI (HL-60(TB) leukemia): 48.8 µM
GI50 (K-562 leukemia): 27.2 µM
TGI (K-562 leukemia): > 100 µM
GI50 (M14 melanoma): 39.3 µM
TGI (M14 melanoma): > 100 µM
GI50 (MOLT-4 leukemia): 21.5 µM
TGI (MOLT-4 leukemia): 53.6 µM
GI50 (MDA-MB-435): 28.1 µM
TGI (MDA-MB-435): 76.5 µM
GI50 (HS 578T breast): 42.7 µM
TGI (HS 578T breast): > 100 µM
GI50 (PC-3 prostate): 23.8 µM
TGI (PC-3 prostate): > 100 µM
GI50 (SF-295 CNS): 40.3 µM
TGI (SF-295 CNS): > 100 µM

Oc1ccc2ccccc2c1C(c1ccc(Cl)cc1)c1c(O)ccc2ccccc12
TGI (HL-60(TB) leukemia): 4.91 µM
TGI (K-562 leukemia): 10.6 µM
TGI (M14 melanoma): 15.2 µM
TGI (MOLT-4 leukemia): 17.5 µM
TGI (MDA-MB-435): 9.49 µM
TGI (HS 578T breast): 8.62 µM
TGI (PC-3 prostate): 7.7 µM
TGI (SF-295 CNS): 12.7 µM

Cc1nc(N)sc1N=Nc1cc(Cl)c([N+](=O)[O-])cc1Cl
TGI (HL-60(TB) leukemia): 57.7 µM
TGI (K-562 leukemia): 30 µM
TGI (M14 melanoma): > 100 µM
TGI (MOLT-4 leukemia): 22.4 µM
TGI (MDA-MB-435): 42.1 µM
TGI (HS 578T breast): 95.9 µM
TGI (PC-3 prostate): 53.3 µM
TGI (SF-295 CNS): 54.6 µM
